± gives the expanded uncertainty stated by the source.
Experiments:
[1] = molar heat capacity at constant pressure; conditions: Liquid, Flow calorimetry
[2] = molar heat capacity at constant pressure; xn = mol fraction of the nth substance listed; conditions: 313.15 K, Liquid, Flow calorimetry

C1CCCCC1 [cyclohexane]
molar heat capacity at constant pressure [J/K/mol], [1]
Conditions | 100 kPa | 5000 kPa | 10000 kPa | 15000 kPa | 20000 kPa
293.15 K | 154.1 ± 1.6 | 152 ± 1.5 | 151.1 ± 1.5 | 149.9 ± 1.5 | 148.7 ± 1.5
313.15 K | 162.7 ± 1.6 | 160.7 ± 1.6 | 158.8 ± 1.6 | 157.3 ± 1.6 | 155.9 ± 1.6
333.15 K | 171 ± 1.7 | 169.1 ± 1.7 | 166.8 ± 1.7 | 164.9 ± 1.7 | 163.4 ± 1.7

C1CCCCC1 [cyclohexane] + C=CCCCC
[2], x1 = 1
Conditions | molar heat capacity at constant pressure [J/K/mol]
100 kPa | 162.7 ± 1.6
5000 kPa | 160.7 ± 1.6
10000 kPa | 158.8 ± 1.6
15000 kPa | 157.3 ± 1.6
20000 kPa | 155.9 ± 1.6

C1CCCCC1 [cyclohexane] + CCO
molar heat capacity at constant pressure [J/K/mol], [2]
Conditions | x1 = 0.1 | x1 = 0.1999 | x1 = 0.2999 | x1 = 0.4 | x1 = 0.5002 | x1 = 0.6 | x1 = 0.7002 | x1 = 0.8 | x1 = 0.8999 | x1 = 1
100 kPa | 127.8 ± 1.3 | 134.2 ± 1.4 | 140.2 ± 1.4 | 146.9 ± 1.5 | 152.7 ± 1.5 | 158.2 ± 1.6 | 163.3 ± 1.7 | 167.6 ± 1.7 | 169.9 ± 1.7 | 162.7 ± 1.6
5000 kPa | 126.5 ± 1.3 | 132.9 ± 1.3 | 138.8 ± 1.4 | 145.2 ± 1.5 | 151 ± 1.5 | 155.9 ± 1.6 | 161 ± 1.6 | 165.2 ± 1.7 | 167.3 ± 1.7 | 160.7 ± 1.6
10000 kPa | 125 ± 1.3 | 131 ± 1.3 | 137.1 ± 1.4 | 143.1 ± 1.4 | 149 ± 1.5 | 154 ± 1.6 | 159 ± 1.6 | 163.1 ± 1.6 | 165.5 ± 1.7 | 158.8 ± 1.6
15000 kPa | 123.7 ± 1.3 | 130.2 ± 1.3 | 135.7 ± 1.4 | 141.3 ± 1.4 | 147 ± 1.5 | 152.9 ± 1.5 | 157.6 ± 1.6 | 161.3 ± 1.6 | 163.3 ± 1.7 | 157.3 ± 1.6
20000 kPa | 122.8 ± 1.2 | 129.5 ± 1.3 | 134.9 ± 1.4 | 140.7 ± 1.4 | 146.6 ± 1.5 | 149 ± 1.5 | 156.3 ± 1.6 | 160.5 ± 1.6 | 162.5 ± 1.6 | 155.9 ± 1.6

CCO [ethanol]
[1], 313.15 K
Conditions | molar heat capacity at constant pressure [J/K/mol]
100 kPa | 119.2 ± 1.2
5000 kPa | 118 ± 1.2
10000 kPa | 116.8 ± 1.2
15000 kPa | 115.5 ± 1.2
20000 kPa | 114.9 ± 1.2

CCO [ethanol] + C1CCCCC1
[2], x2 = 0
Conditions | molar heat capacity at constant pressure [J/K/mol]
100 kPa | 119.2 ± 1.2
5000 kPa | 118 ± 1.2
10000 kPa | 116.8 ± 1.2
15000 kPa | 115.5 ± 1.2
20000 kPa | 114.9 ± 1.2

CCO [ethanol] + C=CCCCC
[2], x2 = 0
Conditions | molar heat capacity at constant pressure [J/K/mol]
100 kPa | 119.2 ± 1.2
5000 kPa | 118 ± 1.2
10000 kPa | 116.8 ± 1.2
15000 kPa | 115.5 ± 1.2
20000 kPa | 114.9 ± 1.2

C=CCCCC [hex-1-ene]
molar heat capacity at constant pressure [J/K/mol], [1]
Conditions | 100 kPa | 5000 kPa | 10000 kPa | 15000 kPa | 20000 kPa
273.15 K | 177.2 ± 1.8 | 170.8 ± 1.7 | 168.3 ± 1.7 | 166.3 ± 1.7 | 165.3 ± 1.7
293.15 K | 184.8 ± 1.9 | 178.6 ± 1.8 | 175.1 ± 1.8 | 172.6 ± 1.7 | 172.1 ± 1.7
313.15 K | 190.7 ± 1.9 | 186.6 ± 1.9 | 182.9 ± 1.8 | 180.4 ± 1.8 | 178.2 ± 1.8

C=CCCCC [hex-1-ene] + C1CCCCC1
molar heat capacity at constant pressure [J/K/mol], [2]
Conditions | x2 = 0 | x2 = 0.1 | x2 = 0.2 | x2 = 0.2999 | x2 = 0.4001 | x2 = 0.5 | x2 = 0.6001 | x2 = 0.7 | x2 = 0.8 | x2 = 0.9
100 kPa | 190.7 ± 1.9 | 187.6 ± 1.9 | 184.3 ± 1.9 | 181.3 ± 1.8 | 178 ± 1.8 | 175.2 ± 1.8 | 172.5 ± 1.7 | 169.7 ± 1.7 | 167.2 ± 1.7 | 165.1 ± 1.7
5000 kPa | 186.6 ± 1.9 | 181.3 ± 1.8 | 180.5 ± 1.8 | 176.8 ± 1.8 | 174.2 ± 1.8 | 171.6 ± 1.7 | 169.6 ± 1.7 | 167.3 ± 1.7 | 163.8 ± 1.7 | 162.2 ± 1.6
10000 kPa | 182.9 ± 1.8 | 179.7 ± 1.8 | 176.9 ± 1.8 | 173.9 ± 1.8 | 172.2 ± 1.7 | 169.1 ± 1.7 | 167 ± 1.7 | 164.9 ± 1.7 | 162.3 ± 1.6 | 160 ± 1.6
15000 kPa | 180.4 ± 1.8 | 177.2 ± 1.8 | 174.8 ± 1.8 | 171.7 ± 1.7 | 169.9 ± 1.7 | 167.6 ± 1.7 | 165.4 ± 1.7 | 163.3 ± 1.7 | 160.2 ± 1.6 | 158.1 ± 1.6
20000 kPa | 178.2 ± 1.8 | 175.4 ± 1.8 | 173.5 ± 1.8 | 170.8 ± 1.7 | 168.6 ± 1.7 | 166.2 ± 1.7 | 163.9 ± 1.7 | 162.1 ± 1.6 | 159.6 ± 1.6 | 157.9 ± 1.6

C=CCCCC [hex-1-ene] + CCO
molar heat capacity at constant pressure [J/K/mol], [2]
Conditions | x1 = 0.0999 | x1 = 0.2 | x1 = 0.3 | x1 = 0.3998 | x1 = 0.4998 | x1 = 0.6 | x1 = 0.7001 | x1 = 0.8003 | x1 = 0.9003 | x1 = 1
100 kPa | 130.7 ± 1.3 | 142 ± 1.4 | 152 ± 1.5 | 161.5 ± 1.6 | 171.8 ± 1.7 | – | 186.4 ± 1.9 | 192.3 ± 1.9 | 197 ± 2 | 190.7 ± 1.9
5000 kPa | 129 ± 1.3 | 139.8 ± 1.4 | 149.7 ± 1.5 | 158.9 ± 1.6 | 167.9 ± 1.7 | 175.4 ± 1.8 | 182.2 ± 1.8 | 188.7 ± 1.9 | 191.2 ± 1.9 | 186.6 ± 1.9
10000 kPa | 127.3 ± 1.3 | 138 ± 1.4 | 147.2 ± 1.5 | 156.2 ± 1.6 | 165.1 ± 1.7 | 172.6 ± 1.7 | 179 ± 1.8 | 184.7 ± 1.9 | 188.5 ± 1.9 | 182.9 ± 1.8
15000 kPa | 126 ± 1.3 | 136.6 ± 1.4 | 145.7 ± 1.5 | 153.7 ± 1.6 | 163.1 ± 1.6 | 170.2 ± 1.7 | 176.3 ± 1.8 | 181.6 ± 1.8 | 185.1 ± 1.9 | 180.4 ± 1.8
20000 kPa | 125 ± 1.3 | 135.4 ± 1.4 | 144.3 ± 1.5 | 152.9 ± 1.5 | 161.4 ± 1.6 | 168.4 ± 1.7 | 174.7 ± 1.8 | 178.5 ± 1.8 | 183.4 ± 1.9 | 178.2 ± 1.8
